Experimental data taken from ChEMBL document CHEMBL1153018, “Synthesis of pochoxime prodrugs as potent HSP90 inhibitors” (Bioorg Med Chem Lett, 2009).
The source made the active and inactive calls. No cut-off for these calls is given here.

What was measured:
Mus musculus [1] = test: Hepatotoxicity in ICR-SCID mouse liver assessed as alanine aminotransferase level at 100 mg/kg administered 3 times per week for 4 weeks measured after 24 hrs of last dose relative to untreated control; assay type: toxicity, organism-based; parameters: dose 100 mg/kg; conditions: in vivo
[2] = Half life in ICR-SCID mouse; assay type: ADME, organism-based; conditions: in vivo
BT-474 [3] = test: Induction of HER2 degradation in human BT474 cells xenografted in ICR-SCID mouse at 100 mg/kg, ip administered after 3 weeks tumor implantation after 6 to 48 hrs by Western blotting; assay type: functional, organism-based; parameters: dose 100 mg/kg
[4] = Drug level in tumor of human BT474 cells xenografted in ICR-SCID mouse at 100 mg/kg, ip administered after 3 weeks tumor implantation measured after 6 hrs; assay type: ADME, organism-based, Neoplasm, BT-474; parameters: dose 100 mg/kg, route intraperitoneal; conditions: tumor (human BT474 xenograft), read-out: Drug uptake
HCC827 [5] = test: Induction of mutant Cyclin D degradation in human tarceva and iressa-resistant HCC827 cells at 20 to 500 nM by Western blotting; assay type: functional, cell-based
K562 = test: Growth inhibition of human K562 cells assessed as ATP level after 4 days; assay type: functional; conditions: K562, 96 h
[6] = Drug level in tumor of human BT474 cells xenografted in ICR-SCID mouse at 100 mg/kg, ip administered after 3 weeks tumor implantation measured after 48 hrs; assay type: ADME, organism-based, Neoplasm, BT-474; parameters: dose 100 mg/kg, route intraperitoneal; conditions: tumor (human BT474 xenograft), read-out: Drug uptake
[7] = Growth inhibition of human A172 cells assessed as ATP level after 4 days; assay type: functional; conditions: A 172, 96 h
[8] = Drug level in tumor of human BT474 cells xenografted in ICR-SCID mouse at 200 mg/kg, ip administered after 3 weeks tumor implantation measured after 24 hrs; assay type: ADME, organism-based, Neoplasm, BT-474; parameters: dose 200 mg/kg, route intraperitoneal; conditions: tumor (human BT474 xenograft), read-out: Drug uptake
Mus musculus [9] = test: Toxicity in ICR-SCID mouse heart assessed as […] level at 100 mg/kg administered 3 times per week for 4 weeks measured after 24 hrs of last dose relative to untreated control; assay type: organism-based; parameters: dose 100 mg/kg; conditions: in vivo
NSCLC = test: Growth inhibition of human NSCLC cells assessed as ATP level after 4 days; assay type: functional, cell-based
Mus musculus [10] = test: Hepatotoxicity in ICR-SCID mouse liver assessed as aspartate aminotransferase level at 150 mg/kg administered 3 times per week for 4 weeks measured after 24 hrs of last dose relative to untreated control; assay type: toxicity, organism-based; parameters: dose 150 mg/kg; conditions: in vivo
Mus musculus [11] = test: Hepatotoxicity in ICR-SCID mouse liver assessed as alkaline phosphatase level at 150 mg/kg administered 3 times per week for 4 weeks measured after 24 hrs of last dose relative to untreated control; assay type: toxicity, organism-based; parameters: dose 150 mg/kg; conditions: in vivo
[12] = Drug level in tumor of human BT474 cells xenografted in ICR-SCID mouse at 200 mg/kg, ip administered after 3 weeks tumor implantation measured after 6 hrs; assay type: ADME, organism-based, Neoplasm, BT-474; parameters: dose 200 mg/kg, route intraperitoneal; conditions: tumor (human BT474 xenograft), read-out: Drug uptake
[13] = Drug level in tumor of human BT474 cells xenografted in ICR-SCID mouse at 100 mg/kg, ip administered after 3 weeks tumor implantation measured after 12 hrs; assay type: ADME, organism-based, Neoplasm, BT-474; parameters: dose 100 mg/kg, route intraperitoneal; conditions: tumor (human BT474 xenograft), read-out: Drug uptake
[14] = Oral bioavailability in mouse; assay type: ADME, organism-based; conditions: in vivo
MDA-MB-468 = test: Growth inhibition of human MDA-MB-468 cells assessed as ATP level after 4 days; assay type: functional; conditions: MDA-MB-468, 96 h
Mus musculus [15] = test: Hepatotoxicity in ICR-SCID mouse liver assessed as aspartate aminotransferase level at 100 mg/kg administered 3 times per week for 4 weeks measured after 24 hrs of last dose relative to untreated control; assay type: toxicity, organism-based; parameters: dose 100 mg/kg; conditions: in vivo
Mus musculus [16] = test: Hepatotoxicity in ICR-SCID mouse liver assessed as bilirubin level at 100 mg/kg administered 3 times per week for 4 weeks measured after 24 hrs of last dose relative to untreated control; assay type: toxicity, organism-based; parameters: dose 100 mg/kg; conditions: in vivo
BT-474 [17] = test: Induction of HSP70 degradation in human BT474 cells xenografted in ICR-SCID mouse at 100 mg/kg, ip administered after 3 weeks tumor implantation after 6 to 48 hrs by Western blotting; assay type: functional, organism-based; parameters: dose 100 mg/kg
[18] = Drug level in tumor of human BT474 cells xenografted in ICR-SCID mouse at 200 mg/kg, ip administered after 3 weeks tumor implantation measured after 48 hrs; assay type: ADME, organism-based, Neoplasm, BT-474; parameters: dose 200 mg/kg, route intraperitoneal; conditions: tumor (human BT474 xenograft), read-out: Drug uptake
[19] = Drug level in tumor of human BT474 cells xenografted in ICR-SCID mouse at 150 mg/kg, ip administered after 3 weeks tumor implantation measured after 12 hrs; assay type: ADME, organism-based, Neoplasm, BT-474; parameters: dose 150 mg/kg, route intraperitoneal; conditions: tumor (human BT474 xenograft), read-out: Drug uptake
NCI-H1975 [20] = test: Induction of mutant EGFR degradation in human tarceva and iressa-resistant NCI-H1975 cells at 20 to 500 nM by Western blotting; assay type: functional, cell-based
NCI-H1975 [21] = test: Induction of mutant c-Raf degradation in human tarceva and iressa-resistant NCI-H1975 cells at 20 to 500 nM by Western blotting; assay type: functional, cell-based
HCC827 [22] = test: Induction of mutant Cdk4 degradation in human tarceva and iressa-resistant HCC827 cells at 20 to 500 nM by Western blotting; assay type: functional, cell-based
Mus musculus [23] = test: Hepatotoxicity in ICR-SCID mouse liver assessed as alanine aminotransferase level at 150 mg/kg administered 3 times per week for 4 weeks measured after 24 hrs of last dose relative to untreated control; assay type: toxicity, organism-based; parameters: dose 150 mg/kg; conditions: in vivo
HCC827 [24] = test: Induction of mutant EGFR degradation in human tarceva and iressa-resistant HCC827 cells at 20 to 500 nM by Western blotting; assay type: functional, cell-based
Mus musculus [25] = test: Toxicity in ICR-SCID mouse kidney assessed as creatinine level at 150 mg/kg administered 3 times per week for 4 weeks measured after 24 hrs of last dose relative to untreated control; assay type: organism-based; parameters: dose 150 mg/kg; conditions: in vivo
Mus musculus [26] = test: Toxicity in ICR-SCID mouse kidney assessed as creatinine level at 100 mg/kg administered 3 times per week for 4 weeks measured after 24 hrs of last dose relative to untreated control; assay type: organism-based; parameters: dose 100 mg/kg; conditions: in vivo
BT-474 [27] = test: Induction of AKT degradation in human BT474 cells xenografted in ICR-SCID mouse at 100 mg/kg, ip administered after 3 weeks tumor implantation after 6 to 48 hrs by Western blotting; assay type: functional, organism-based; parameters: dose 100 mg/kg
Mus musculus [28] = test: Toxicity in ICR-SCID mouse kidney assessed as BUN level at 150 mg/kg administered 3 times per week for 4 weeks measured after 24 hrs of last dose relative to untreated control; assay type: organism-based; parameters: dose 150 mg/kg; conditions: in vivo
[29] = Drug level in tumor of human BT474 cells xenografted in ICR-SCID mouse at 100 mg/kg, ip administered after 3 weeks tumor implantation measured after 24 hrs; assay type: ADME, organism-based, Neoplasm, BT-474; parameters: dose 100 mg/kg, route intraperitoneal; conditions: tumor (human BT474 xenograft), read-out: Drug uptake
PC-3 = test: Growth inhibition of human PC3 cells assessed as ATP level after 4 days; assay type: functional, cell-based
HCC827 [30] = test: Induction of mutant c-Raf degradation in human tarceva and iressa-resistant HCC827 cells at 20 to 500 nM by Western blotting; assay type: functional, cell-based
[31] = Drug level in tumor of human BT474 cells xenografted in ICR-SCID mouse at 150 mg/kg, ip administered after 3 weeks tumor implantation measured after 6 hrs; assay type: ADME, organism-based, Neoplasm, BT-474; parameters: dose 150 mg/kg, route intraperitoneal; conditions: tumor (human BT474 xenograft), read-out: Drug uptake
MV4-11 = test: Growth inhibition of human MV4-11 cells assessed as ATP level after 4 days; assay type: functional; conditions: MV4-11, 96 h
NCI-H1975 [32] = test: Induction of mutant Cdk4 degradation in human tarceva and iressa-resistant NCI-H1975 cells at 20 to 500 nM by Western blotting; assay type: functional, cell-based
[33] = Drug level in tumor of human BT474 cells xenografted in ICR-SCID mouse at 150 mg/kg, ip administered after 3 weeks tumor implantation measured after 48 hrs; assay type: ADME, organism-based, Neoplasm, BT-474; parameters: dose 150 mg/kg, route intraperitoneal; conditions: tumor (human BT474 xenograft), read-out: Drug uptake
HCC827 [34] = test: Induction of mutant p-Akt degradation in human tarceva and iressa-resistant HCC827 cells at 20 to 500 nM by Western blotting; assay type: functional, cell-based

O=C1OCC/C=C/CC/C=C/C(=N/OCC(=O)N2CCCCC2)Cc2c(Cl)c(O)cc(O)c21 [POCHOXIME A]
Activity (Mus musculus [1]): 19.3 U/L
half-life [2]: 2.5 h
Activity (BT-474 [3]): Active
concentration at 6 h [4]: 5490 ng/g
Activity (HCC827 [5]): Active
GI50 (K562): 6 nM
concentration at 48 h [6]: 1500 ng/g
GI50 [7]: 42 nM
concentration at 24 h [8]: 10200 ng/g
Activity (Mus musculus [9]): 15.2 U/L
Activity (NSCLC): Active
Activity (Mus musculus [10]): 191 U/L
Activity (Mus musculus [11]): 67.5 U/L
concentration at 6 h [12]: 6520 ng/g
concentration at 12 h [13]: 5250 ng/g
bioavailability [14]: 3.4%
GI50 (MDA-MB-468): 9 nM
Activity (Mus musculus [15]): 88.7 U/L
Activity (Mus musculus [16]): 0.2 mg/dL
Activity (BT-474 [17]): Active
concentration at 48 h [18]: 4020 ng/g
concentration at 12 h [19]: 6500 ng/g
Activity (NCI-H1975 [20]): Active
Activity (NCI-H1975 [21]): Active
Activity (HCC827 [22]): Active
Activity (Mus musculus [23]): 12 U/L
Activity (HCC827 [24]): Active
Activity (Mus musculus [25]): 0.2 mg/dL
Activity (Mus musculus [26]): 0.2 mg/dL
Activity (BT-474 [27]): Active
Activity (Mus musculus [28]): 19 mg/dL
concentration at 24 h [29]: 4020 ng/g
Activity (PC-3): Active
Activity (HCC827 [30]): Active
concentration at 6 h [31]: 6180 ng/g
GI50 (MV4-11): 3 nM
Activity (NCI-H1975 [32]): Active
concentration at 48 h [33]: 4580 ng/g
Activity (HCC827 [34]): Active
